The numbers were not newly measured in patent US12173009B2, “Diamine derivatives as inhibitors of leukotriene A4 hydrolase” (CELLTAXIS, LLC, priority 2005, dated 2024), which cites them from elsewhere.

Where only a bound is given, the exact number is not on record here.

As usually defined, the Kd is the constant that tells how readily two partners part at equilibrium.

Series [1] deals with lower affinity LTB4 receptors on neutrophils. The settings on record: additional lower affinity receptors on neutrophils.
In a further series the target is T1, Human BLT2 (Homo sapiens, UniProt Q9NPC1).
T1 sequence (Q9NPC1 1-358): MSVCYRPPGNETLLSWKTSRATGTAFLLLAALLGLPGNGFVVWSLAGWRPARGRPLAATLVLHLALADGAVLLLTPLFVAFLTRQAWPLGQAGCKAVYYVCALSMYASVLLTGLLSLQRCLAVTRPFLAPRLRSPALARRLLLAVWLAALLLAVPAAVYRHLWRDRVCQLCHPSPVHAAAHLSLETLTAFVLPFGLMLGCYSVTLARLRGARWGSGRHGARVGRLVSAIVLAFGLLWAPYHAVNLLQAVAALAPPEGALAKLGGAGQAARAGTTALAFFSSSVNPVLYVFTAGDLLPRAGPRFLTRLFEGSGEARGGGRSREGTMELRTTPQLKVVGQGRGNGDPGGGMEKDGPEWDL
The settings on record: Human BLT2 versus BLT1.

Another series deals with BLT1. The settings on record: Human BLT1 and its mouse, rat and guinea pig orthologues.
For series [2], the target named is T2, LTA4-h (Mus musculus, UniProt P24527).
T2 construct: host or cells: mouse blood (endogenous enzyme)
T2 sequence (P24527 1-611): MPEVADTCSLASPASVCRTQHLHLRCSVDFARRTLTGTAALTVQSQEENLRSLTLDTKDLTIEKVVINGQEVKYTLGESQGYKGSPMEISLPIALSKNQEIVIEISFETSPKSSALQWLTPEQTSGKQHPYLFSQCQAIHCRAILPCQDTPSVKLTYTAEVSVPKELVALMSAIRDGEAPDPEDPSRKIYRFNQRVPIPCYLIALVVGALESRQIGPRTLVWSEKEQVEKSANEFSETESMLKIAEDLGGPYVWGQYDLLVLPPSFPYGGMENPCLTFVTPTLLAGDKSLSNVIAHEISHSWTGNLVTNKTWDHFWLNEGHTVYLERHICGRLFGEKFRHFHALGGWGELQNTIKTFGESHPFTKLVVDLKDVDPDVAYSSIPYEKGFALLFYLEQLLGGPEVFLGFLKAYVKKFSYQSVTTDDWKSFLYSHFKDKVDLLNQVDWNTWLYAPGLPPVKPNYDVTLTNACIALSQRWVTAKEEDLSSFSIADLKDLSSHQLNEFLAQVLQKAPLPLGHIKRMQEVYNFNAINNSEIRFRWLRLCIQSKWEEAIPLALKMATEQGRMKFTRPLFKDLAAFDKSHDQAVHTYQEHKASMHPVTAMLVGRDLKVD
The settings on record: oral administration; mouse blood ex vivo.

A further series relates to spontaneous colitis. The settings on record: eight weeks of treatment; cotton top tamarins.
Series [3] has as its target T3, LTA4-h (Rattus norvegicus, UniProt P30349).
T3 construct: host or cells: rat peritoneum (endogenous enzyme)
T3 sequence (P30349 1-611): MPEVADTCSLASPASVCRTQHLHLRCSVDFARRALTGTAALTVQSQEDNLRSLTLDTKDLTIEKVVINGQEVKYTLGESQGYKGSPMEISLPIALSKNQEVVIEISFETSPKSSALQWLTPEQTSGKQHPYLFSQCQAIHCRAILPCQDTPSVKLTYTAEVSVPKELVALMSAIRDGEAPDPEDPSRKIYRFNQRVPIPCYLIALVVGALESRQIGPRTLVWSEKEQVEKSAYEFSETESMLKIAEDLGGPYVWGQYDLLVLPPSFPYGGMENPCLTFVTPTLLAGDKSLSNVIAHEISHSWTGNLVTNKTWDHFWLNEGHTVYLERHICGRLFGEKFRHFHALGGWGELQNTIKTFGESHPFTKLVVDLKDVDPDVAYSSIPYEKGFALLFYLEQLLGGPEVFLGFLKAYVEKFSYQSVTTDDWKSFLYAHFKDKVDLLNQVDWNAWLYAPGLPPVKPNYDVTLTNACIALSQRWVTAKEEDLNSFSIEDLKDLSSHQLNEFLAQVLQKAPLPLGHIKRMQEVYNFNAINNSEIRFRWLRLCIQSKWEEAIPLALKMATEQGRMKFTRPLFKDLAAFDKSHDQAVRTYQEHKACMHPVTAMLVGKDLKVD
The settings on record: oral administration; rat peritoneum in vivo.

Regarding `CCCCC/C=C\C[C@@H](O)/C=C/C=C/C=C\[C@@H](O)CCCC(=O)O` [LTB4, Leukotriene B4], the Kd in series [1] is greater than 60 nM; on BLT1 it was 0.1 to 0.7 nM. Moreover, the “lower affinity of BLT2 for LTB4 than BLT1” value on Human BLT2 is listed as 20 fold.

In the case of `CN(CCCOc1ccc(Cc2ccccc2)cc1)CCC(=O)O.Cl` [SC57461], the “ionophore-induced LTB4 production” value on LTA4-h [2] and on LTA4-h [3] was “caused inhibition” in each case. Besides, in the series with spontaneous colitis, the colitis symptoms entry was “significantly improved colitis symptoms”.
